Data: patent US7541383B2, “Asthma and allergic inflammation modulators” (Amgen Inc., priority 2002, dated 2009)
pIC50: −log10 of the molar value.

target: T1, human CRTH2 (Homo sapiens, UniProt Q9Y5Y4); test: Human CRTH2 binding assay (3H-PGD2 ligand binding, 293(124) cells); settings: 3H-PGD2 binding to 293(124) cells stably expressing human CRTH2; room temperature, 2.5 h
T1 construct: Full-length human CRTH2 cDNA was generated by polymerase chain reaction (PCR); expressed in transfected cells; host or cells: 293 cells stably transfected with pHLT124 (pCDNA3.1(+)), named 293(124)
T1 sequence (Q9Y5Y4 1-395): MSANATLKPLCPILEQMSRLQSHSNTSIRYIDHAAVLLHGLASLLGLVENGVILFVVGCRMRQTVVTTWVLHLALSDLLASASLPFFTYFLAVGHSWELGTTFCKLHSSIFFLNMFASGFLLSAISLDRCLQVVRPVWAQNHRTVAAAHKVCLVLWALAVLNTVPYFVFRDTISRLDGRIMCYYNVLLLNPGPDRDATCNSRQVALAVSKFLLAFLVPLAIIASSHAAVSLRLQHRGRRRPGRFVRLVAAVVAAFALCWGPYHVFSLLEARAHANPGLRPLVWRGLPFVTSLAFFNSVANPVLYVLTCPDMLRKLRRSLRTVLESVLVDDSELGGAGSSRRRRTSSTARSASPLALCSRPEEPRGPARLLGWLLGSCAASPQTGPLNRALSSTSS
Description: Full-length human CRTH2 cDNA was generated by polymerase chain reaction (PCR) using human genomic DNA as template and subsequently cloned into pCDNA3.1(+) (Invitrogen), generating a CRTH2 expression plasmid pHLT124. The plasmid was transfected into 293 cells, […], using LipofectAMINE™ reagents (Gibco/BRL). G418 ([…]) was added to the culture 48 h after transfection and cells were maintained under selection for 3 weeks to ensure that all surviving cells stably expressed CRTH2. These cells are labeled as 293(124) hereafter.
^3H-PGD2 binding assay was performed using 293(124) cells. In brief, cells were washed and suspended in RPMI containing 0.5% BSA and 20 mM HEPES. Each assay contained 25,000 cells, appropriate amount of test compound when necessary and a mixture of 1 nM ^3H-PGD2 (Anmersham Pharmacia Biotech) and 30 nM of unlabeled PGD2 (Cayman Chemicals) in […] final volume. The cell mixture was incubated at room temperature for 2.5 h with shaking and the cells were separated from free ^3H-PGD2 and transferred onto a filter plate using a cell harvester. Radioactivity bound to the cells was measured on a liquid scintillation counter. Nonspecific binding was determined in the presence of […] of unlabeled PGD2.

| pIC50 | Compound |
| --- | --- |
| 4.82 to 6.00 | Cc1ccc(S(=O)(=O)Nc2cc(C(F)(F)F)ccc2Oc2ccc(CC(=O)O)cc2)cc1 [Example 1, {4-[2-(toluene-4-sulfonylamino)-4-trifluoromethyl-phenoxy]-phenyl}-acetic acid] |
| 4.82 to 6.00 | O=C(O)Cc1ccc(Oc2ccc(C(F)(F)F)cc2NS(=O)(=O)c2cccc3ccccc23)cc1 [Example 2, {4-[2-(Naphthalene-1-sulfonylamino)-4-trifluoromethyl-phenoxy]-phenyl}-acetic acid] |
| 4.82 to 6.00 | O=C(O)Cc1ccc(Oc2ccc(C(F)(F)F)cc2NC(=O)c2ccccc2)cc1 [Example 3, [4-(2-Benzoylamino-4-trifluoromethyl-phenoxy)-phenyl]-acetic acid] |
| < 4.82 | CS(=O)(=O)Nc1cc(C(F)(F)F)ccc1Oc1ccc(CC(=O)O)cc1 [Example 4, [4-(2-Methanesulfonylamino-4-trifluoromethyl-phenoxy)-phenyl]-acetic acid] |
| 4.82 to 6.00 | O=C(O)Cc1cc(OCc2ccccc2)cc(C(F)(F)F)c1 [Example 5, (3-benzyloxy-5-trifluoromethyl-phenyl)-acetic acid] |
| > 6.00 | CCNC(=O)c1ccc(Oc2ccc(CCC(=O)O)cc2)c(NS(=O)(=O)c2ccccc2)c1 [Example 10, 3-[4-(2-Benzenesulfonylamino-4-ethylcarbamoyl-phenoxy)-phenyl]-propionic acid] |
| > 6.00 | CCNC(=O)c1ccc(Oc2ccc(CC(=O)O)cc2OC)c(NS(=O)(=O)c2ccc(Cl)cc2Cl)c1 [Example 12, (4-[2-(2,4-Dichloro-benzenesulfonyl-amino)-4-ethylcarbamoyl-phenoxy]-3-methoxy-phenyl)-acetic acid] |
| 4.82 to 6.00 | CCNC(=O)c1ccc(S(=O)(=O)c2ccc(CC(=O)O)cc2)c(NS(=O)(=O)c2ccc(Cl)cc2Cl)c1 [Example 17, {4-[2-(2,4-dichloro-benzenesulfonyl-amino)-4-ethylcarbamoyl-benzenesulfonyl]-phenyl}-acetic acid] |
| > 6.00 | CCNC(=O)c1cc(NS(=O)(=O)c2ccc(Cl)cc2Cl)c2oc3c(Cl)cc(CC(=O)O)cc3c2c1 [Example 18, [4-chloro-6-(2,4-dichloro-benzenesulfonyl-amino)-8-ethylcarbamoyl-dibenzofuran-2-yl]-acetic acid] |
| < 4.82 | CCOC(=O)Cc1cccc(Oc2ccccc2[N+](=O)[O-])c1 [Example 31, Ethyl 3-(2-nitrophenoxy)phenylacetate] |
| 4.82 to 6.00 | O=C(O)Cc1cccc(Oc2ccc(C(=O)c3ccccc3)cc2NS(=O)(=O)c2ccccc2)c1 [Example 33, 3-(4-Benzoyl-2-benzenesulfonylamino-phenoxy)phenylacetic acid] |
| > 6.00 | O=C(O)Cc1cccc(Oc2ccc(Cl)cc2NS(=O)(=O)c2ccccc2)c1 [Example 35, 3-(4-Chloro-2-benzenesulfonylamino-phenoxy)phenylacetic acid] |
| 4.82 to 6.00 | COc1ccc(Oc2cccc(CC(=O)O)c2)c(NS(=O)(=O)c2ccccc2)c1 [Example 36, 3-(4-Methoxy-2-benzenesulfonylamino-phenoxy)phenylacetic acid] |
| 4.82 to 6.00 | O=C(O)Cc1cn(Cc2ccccc2NCc2ccccc2)c2ccccc12 [Example 63] |
| > 6.00 | Cc1ccc(S(=O)(=O)Nc2ccccc2Cc2ccc(CC(=O)O)cc2)cc1 [Example 64] |
| > 6.00 | CCNC(=O)c1ccc(C(=O)c2cc(CC(=O)O)ccc2OC)c(NS(=O)(=O)c2ccc(C)cc2)c1 [Example 70] |
| > 6.00 | CCNC(=O)c1ccc(Oc2ccc(Cc3nnn[nH]3)cc2OC)c(NS(=O)(=O)c2ccc(Cl)cc2Cl)c1 [Example 75, 3-(2,4-Dichloro-benzenesulfonylamino)-N-ethyl-4-[2-methoxy-4-(1H-tetrazol-5-ylmethyl)-phenoxy]-benzamide] |
| 4.82 to 6.00 | CCNC(=O)c1ccc(Oc2cc(CC(=O)O)ccc2OC)c(NC(=O)OC(C)C)c1 [Example 77, [3-(4-Ethylcarbamoyl-2-isopropoxycarbonylamino-phenoxy)-4-methoxy-phenyl]-acetic acid] |
